Measured values: paper PMC5643135, “Crystallographic and thermodynamic characterization of phenylaminopyridine bisphosphonates binding to human farnesyl pyrophosphate synthase” (PLoS ONE, 2017)

Target: T1, human farnesyl pyrophosphate synthase (hFPPS) (Homo sapiens, UniProt P14324)
T1 construct: gene FDPS; purified protein, homodimer, subunit 42 kDa
T1 sequence (P14324 1-353 isoform P14324-2): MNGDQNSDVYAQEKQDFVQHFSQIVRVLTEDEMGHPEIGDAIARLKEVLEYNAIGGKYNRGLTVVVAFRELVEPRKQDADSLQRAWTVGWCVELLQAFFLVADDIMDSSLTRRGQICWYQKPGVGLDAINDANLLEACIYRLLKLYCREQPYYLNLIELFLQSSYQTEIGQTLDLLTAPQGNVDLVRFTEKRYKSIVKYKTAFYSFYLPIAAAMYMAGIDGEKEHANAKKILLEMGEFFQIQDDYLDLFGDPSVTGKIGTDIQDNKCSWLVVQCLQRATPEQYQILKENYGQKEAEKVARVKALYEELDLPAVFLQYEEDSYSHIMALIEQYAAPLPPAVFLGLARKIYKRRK
Assay: ITC, one-site model
Type: binding
Excerpt: ITC, one-site model on human farnesyl pyrophosphate synthase (hFPPS)

- Kd: 120 ± 36 nM
SMILES: O=P(O)(O)C(Nc1cncc(-c2ccc(OC3CC3)cc2)c1)P(=O)(O)O [JDS05120]
